# Measured values published in patent US20090088417A1, “VANILLOID RECEPTOR ANTAGONIST FOR PREVENTION AND TREATMENT OF DRUG DEPENDENCE AND ADDICTION” (priority 2006, published 2009).
# Entries after “also recorded” stand apart in the source; their conditions may differ.
# Assays:
# male ICR mouse = experiment: Conditioned place preference (CPP) test, development of psychological dependence on cocaine; type: in vivo; conditions: measured on ninth day
# Procedure: In the present invention, a conditioned place preference (CPP) test is used to monitor the degree of alleviation in drug dependence and addiction. The CPP system used in the present invention includes a white box, a black box and a pathway connecting the two boxes with each other. Mice are used as test animals and effects on preference/aversion are analyzed by measuring residence times of the mice in the two boxes.
# Development of psychological dependence on cocaine was determined according to the CPP (conditioned place preference) test. […]
# Step 1 (Basic Test): On the first day of the test, the Guillotine door between the two boxes was opened, and a male ICR mouse having a body weight of 20˜25 g made available by MJ Ltd. (Seoul) was accommodated in the CPP system so that it could move freely therein for 5 minutes. […] Then, residence times of the mouse in the two boxes were measured for 15 minutes to obtain reference values. […]
# Step 3 (Test Step): On the ninth day of the test, the Guillotine door between the two boxes was opened, a pathway was provided in the middle of the boxes, and then a mouse, to which no drug was administered, was allowed to remain in the two boxes for 15 minutes. Then, residence times in the white box and in the black box were measured and compared to the values measured on the second day of the test. […]
# mice [1] = experiment: Locomotor activity, behavioral sensitization caused by cocaine (displacement from spontaneous movements); type: in vivo, mouse
# Procedure: Behavioral sensitization in recurrence of psychological dependence on cocaine was determined according to the locomoter activity. See [Yoo et al. 2003, Neurosci Lett. 433, pp 37-40].
# Test animals were divided into four groups as follows: physiological saline was administered to the first test group, cocaine was administered to the second test group, cocaine +2.5 mg/kg of capsazepine (pretreatment) was administered to the third test group, and cocaine +5.0 mg/kg of capsazepine (pretreatment) was administered to the fourth test group.
# A locomotor box was used for the test. […] The bottom of the box was covered with a black sheet having substantially the same size as the former.
# Step (1)—Basic Test: On the first day, mice were allowed to move freely in the locomotor box for 30 minutes so that they were accommodated.
# After the accommodation period, 15 mg/kg of cocaine was administered to the mice via intraperitoneal injection, and then the mice were allowed to remain in the locomotor box. The displacement from spontaneous movements of the mice was measured. […] On the sixth day of the test, the drug was administered again to the mice and the displacement from spontaneous movements was measured. […] Then, displacement from spontaneous movements was measured. […]
# [2] = cited from earlier work
# mice [3] = experiment: CPP test, recurrence of psychological dependence on cocaine after withdrawal; type: in vivo, mouse; conditions: capsazepine 10 mg/kg single-dose pretreatment + cocaine on fifteenth day after 5 days of saline; p<0.05 vs cocaine group
# Procedure: The following CPP system was used to perform the test. The CPP system included two boxes, each having a dimension of 15 cm×15 cm×15 cm (width×depth×height). One of the boxes was made of white acryl sheets on three sides thereof, while the other was made of black acryl sheets on three sides thereof. […] Between the two boxes, a gray-colored pathway having a dimension of 3×3×7.5 cm was provided. Also, a Guillotine door capable of interrupting the pathway was provided. […] The test was performed under an illuminance maintained at 20 Lux.
# Test animals were divided into four groups. Psychological saline was administered to the first test group (10 mice), and cocaine was administered to the remaining second test group, third test group and fourth test group (30 mice in total). On the ninth day of the test, development of a dependence on cocaine was checked, and then saline was administered alone for the subsequent 5 days to allow the mice to lose the cocaine dependence. […] Residence times in the CPP boxes were measured as described above.
Structure (SMILES),"Effect on development of psychological dependence on cocaine (residence times in CPP boxes) (male ICR mouse; capsaicin 0.3 mg/kg pretreatment + cocaine, p<0.01 vs saline group)","Inhibition of behavioral sensitization after drug withdrawal (displacement from spontaneous movements, 60 minutes) (mice [1]; capsazepine 5 mg/kg pretreated group, cocaine 15 mg/kg on twelfth day after withdrawal period of five days, p<0.01)","Inhibition of behavioral sensitization (displacement from spontaneous movements, 60 minutes) (mice [1]; capsazepine 5 mg/kg pretreatment + cocaine 15 mg/kg i.p. repeated, sixth day of the test, p<0.001)","Inhibition of development of psychological dependence on cocaine (residence times in CPP boxes) (male ICR mouse; capsazepine 2.5 and 5 mg/kg i.p., 30 minutes before cocaine 15 mg/kg i.p., p<0.05 vs cocaine group)","Analgesic actions in an animal test ([2]; Kwak et al., 1998, Santos and Calixto, 1997)","Analgesic or anti-inflammatory effect ([2]; Perkins and Campbell, 1992)",Inhibition of recurrence of psychological dependence on cocaine (residence times in CPP boxes) (mice [3])
COc1cc(CNC(=O)CCCC/C=C/C(C)C)ccc1O [capsaicin],increases dependence on cocaine; also recorded: significant increase in psychological dependence on cocaine,,,,,,
Oc1cc2c(cc1O)CN(C(=S)NCCc1ccc(Cl)cc1)CCC2 [capsazepine],,completely inhibited,significantly inhibits behavioral sensitization caused by cocaine; also recorded: behavioral sensitization was inhibited,significantly inhibits development of psychological dependence on cocaine,effective for providing analgesic actions,does not provide an analgesic or anti-inflammatory effect,significantly inhibits recurrence of dependence on cocaine; also recorded: showed inhibition of such recurrence
